Where a name gives a salt, the structure may show the parent alone.
Key:
A375 (melanoma) = experiment: SRB cytotoxicity assay, A375; format: cell-based, human; details: Homo sapiens, A-375; Table 2; SRB assay, 72 h of treatment; cut-off 30 μM; read-out: Cytotoxicity (EC50) A375
Experimental: (§1) Sulforhodamine (SRB) assays were performed to evaluate the cytotoxicity of the compounds. First, the cytotoxicity of the different rhodamines was determined; the results of these assays are compiled in Table 1 and Table 2 and depicted in Figure 1.
(§2) Experimental equipment: as previously described biological assays were performed as previously reported employing cell lines obtained from the Department of Oncology [Martin-Luther-University Halle Wittenberg; they were bought from ATCC [2, 4, 7]]. Rhodamine 101 B, as well as asiatic acid, were obtained from local vendors and used as received.
(§3) For the SRB assay and staining experiments: as previously described.

[1] = tested on: HT29 (colorectal carcinoma); experiment: SRB cytotoxicity assay, HT29; format: cell-based, human; details: Homo sapiens, HT-29; Table 2; SRB assay, 72 h of treatment; cut-off 30 μM; read-out: Cytotoxicity (EC50) HT29
Experimental: as §1, §2, §3

[2] = tested on: MCF7 (breast adenocarcinoma); experiment: SRB cytotoxicity assay, MCF7; format: cell-based, human; details: Homo sapiens, MCF7; Table 2; SRB assay, 72 h of treatment; cut-off 30 μM; read-out: Cytotoxicity (EC50) MCF7
Experimental: as §1, §2, §3

[3] = tested on: A2780 (ovarian carcinoma); experiment: SRB cytotoxicity assay, A2780; format: cell-based, human; details: Homo sapiens, A2780; Table 2; SRB assay, 72 h of treatment; cut-off 30 μM; read-out: Cytotoxicity (EC50) A2780
Experimental: as §1, §2, §3

[4] = tested on: HeLa (cervical adenocarcinoma); experiment: SRB cytotoxicity assay, HeLa; format: cell-based, human; details: Homo sapiens, HeLa; Table 2; SRB assay, 72 h of treatment; cut-off 30 μM; read-out: Cytotoxicity (EC50) HeLa
Experimental: as §1, §2, §3

[5] = SRB cytotoxicity assay, NIH 3T3; format: cell-based, murine; details: mouse, NIH 3T3 non-malignant fibroblasts, Table 2, 72 h of treatment, cut-off 30 μM
Experimental: as §1, §2, §3

melting point [°C] | SMILES | EC50 (A375 (melanoma)) [nM] | EC50 [1] [nM] | EC50 [2] [nM] | EC50 [3] [nM] | EC50 [4] [nM] | EC50 at 72 h [5] [nM]
248 to 250 | CC(=O)OC[C@@]1(C)C2CC[C@]3(C)[C@H](CC=C4[C@@H]5[C@@H](C)[C@H](C)CC[C@]5(C(=O)N5CCN(C(=O)c6ccccc6-c6c7ccc(=[N+](C)C)cc-7oc7cc(N(C)C)ccc67)CC5)CC[C@]43C)[C@@]2(C)C[C@@H](OC(C)=O)[C@@H]1OC(C)=O (stereo partly drawn) (as salt: chloride) [compound 6, (2α,3β,4α)-9-[2-{[4-(2,3,23-Tris(acetyloxy)-urs-12-en-28-oyl)-Piperazinyl]Carbonyl}Phenyl]-3,6-bis(Dimethylamino)-Xanthylium Chloride] | – | – | – | – | – | –
226 to 228 | CCCN(CCC)c1ccc2c(-c3ccccc3C(=O)N3CCN(C(=O)[C@]45CC[C@@H](C)[C@H](C)[C@H]4C4=CC[C@@H]6[C@@]7(C)C[C@@H](OC(C)=O)[C@H](OC(C)=O)[C@@](C)(COC(C)=O)C7CC[C@@]6(C)[C@]4(C)CC5)CC3)c3ccc(=[N+](CCC)CCC)cc-3oc2c1 (stereo partly drawn) (as salt: chloride) [compound 8, (2α,3β,4α)-9-[2-{[4-(2,3,23-Tris(Acetyloxy)-urs-12-en-28-oyl)-Piperazinyl]Carbonyl}Phenyl]-3,6-Bis(Dipropylamino)-Xanthylium Chloride] | – | – | – | – | – | –
222 to 226 | CCCCN(CCCC)c1ccc2c(-c3ccccc3C(=O)N3CCN(C(=O)[C@]45CC[C@@H](C)[C@H](C)[C@H]4C4=CC[C@@H]6[C@@]7(C)C[C@@H](OC(C)=O)[C@H](OC(C)=O)[C@@](C)(COC(C)=O)C7CC[C@@]6(C)[C@]4(C)CC5)CC3)c3ccc(=[N+](CCCC)CCCC)cc-3oc2c1 (stereo partly drawn) (as salt: chloride) [compound 9, (2α,3β,4α)-9-[2-{[4-(2,3,23-Tris(Acetyloxy)-urs-12-en-28-oyl)-Piperazinyl]Carbonyl}Phenyl]-3,6-Bis(Dibutylamino)-Xanthylium Chloride] | – | – | – | – | – | –
– | CCN(CC)c1ccc2c(-c3ccccc3C(=O)N3CCCN(C(=O)[C@]45CC[C@@H](C)[C@H](C)[C@H]4C4=CC[C@@H]6[C@@]7(C)C[C@@H](OC(C)=O)[C@H](OC(C)=O)[C@@](C)(COC(C)=O)C7CC[C@@]6(C)[C@]4(C)CC5)CCC3)c3ccc(=[N+](CC)CC)cc-3oc2c1 (stereo partly drawn) [compound 17, (2α,3β,4α)-9-[2-[{4-(2α,3β,23-Tris(Acetyloxy)-urs-12-en-28-oyl)-1,5-Diazocan-1-Yl]Carbonyl}Phenyl]-3,6-Bis(Diethylamino)-Xanthylium Chloride] | 30 ± 10 | 30 ± 10 | 25 ± 20 | 7 ± 2 | 60 ± 10 | 450 ± 20
– | CCCN(CCC)c1ccc2c(-c3ccccc3C(=O)N3CCCN(C(=O)[C@]45CC[C@@H](C)[C@H](C)[C@H]4C4=CC[C@@H]6[C@@]7(C)C[C@@H](OC(C)=O)[C@H](OC(C)=O)[C@@](C)(COC(C)=O)C7CC[C@@]6(C)[C@]4(C)CC5)CCC3)c3ccc(=[N+](CCC)CCC)cc-3oc2c1 (stereo partly drawn) [compound 18, (2α,3β,4α)-9-[2-[{4-(2α,3β,23-Tris(Acetyloxy)-urs-12-en-28-oyl)-1,5-Diazocan-1-Yl]Carbonyl}Phenyl]-3,6-Bis(Dipropylamino)-Xanthylium Chloride] | 7.4 ± 0.9 | 12 ± 4 | 17 ± 2 | 1.9 ± 0.2 | 70 ± 20 | 360 ± 50
– | CCCCN(CCCC)c1ccc2c(-c3ccccc3C(=O)N3CCCN(C(=O)[C@]45CC[C@@H](C)[C@H](C)[C@H]4C4=CC[C@@H]6[C@@]7(C)C[C@@H](OC(C)=O)[C@H](OC(C)=O)[C@@](C)(COC(C)=O)C7CC[C@@]6(C)[C@]4(C)CC5)CCC3)c3ccc(=[N+](CCCC)CCCC)cc-3oc2c1 (stereo partly drawn) [compound 19, (2α,3β,4α)-9-[2-[{4-(2α,3β,23-Tris(Acetyloxy)-urs-12-en-28-oyl)-1,5-Diazocan-1-Yl]Carbonyl}Phenyl]-3,6-Bis(Dibutylamino)-Xanthylium Chloride] | 30 ± 10 | 30 ± 10 | 40 ± 5 | 6 ± 2 | 170 ± 80 | 240 ± 80
